The target in the experiment is Casein kinase I isoform alpha (Homo sapiens, UniProt P48729). Put plainly: Inhibition of CK1 after 30 mins by liquid scintillation counter.

The structures appear in SMILES notation.

The values that follow come from BindingDB's records for doi:10.1016/j.ejmech.2012.08.033 (2012).

Sequence of Casein kinase I isoform alpha (P48729 whole entry, canonical isoform): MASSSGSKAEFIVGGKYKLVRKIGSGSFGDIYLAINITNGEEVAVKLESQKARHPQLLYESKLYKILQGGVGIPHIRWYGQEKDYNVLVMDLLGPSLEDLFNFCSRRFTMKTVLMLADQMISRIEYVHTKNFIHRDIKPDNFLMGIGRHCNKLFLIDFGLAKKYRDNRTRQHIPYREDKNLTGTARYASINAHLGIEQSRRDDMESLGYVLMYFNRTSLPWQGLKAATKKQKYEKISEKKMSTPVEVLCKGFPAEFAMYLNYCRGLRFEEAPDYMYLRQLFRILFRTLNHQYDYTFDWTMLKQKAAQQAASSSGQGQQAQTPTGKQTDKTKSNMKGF

A word on the IC50: it is the concentration that inhibits the measured activity by half. A high value points to weaker potency. The molecule `CC(C)[C@H](N)C(=O)OC[C@H](O)CNc1nc(NCc2ccc(-c3ccccn3)cc2)c2ncn(C(C)C)c2n1` displayed an IC50 of 150 nM.
To `CC(C)n1cnc2c(NCc3ccc(-c4ccccn4)cc3)nc(NCC[C@H](O)CO)nc21` belongs 660 nM; to `CC(C)n1cnc2c(NCc3ccc(-c4ccccn4)cc3)nc(N3C[C@H](O)C[C@H]3CO)nc21`, 390 nM.
`CC(C)n1cnc2c(NCc3ccc(-c4ccccn4)cc3)nc(NC[C@@H](O)CO)nc21` came in with an IC50 of 180 nM.
